Laboratory results published in patent US20060004002A1 (priority 2004, published 2006).

Legend:
Format in all cases: biochemical
Recombinant human Src = target: T1, Recombinant human Src (Homo sapiens, UniProt P12931); assay: Src tyrosine kinase activity assay with poly E4Y and 32P-ATP; details: poly E4Y, 32P-ATP; NI = no inhibition; read-out: IC50 Value Src
T1 construct: made in house; host or cells: baculovirus-insect cell system
How it was run: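 Src expressed in baculovirus-insect cells; Csk and FGFr expressed as GST fusions in E. coli. Kinase activity measured as 32P transfer from γ32P-ATP (0.2 mM, 0.2-0.4 mCi/μmol) to poly E4Y in 0.15 M EPPS-NaOH pH 8.0, 6 mM MgCl2, 10% glycerol, 0.1% Triton X-100; in ATP-variation runs (0-250 μM), poly E4Y fixed at 150 μg/ml.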

Recombinant Csk = target: T2, Recombinant Csk (Homo sapiens, UniProt P41240); assay: Csk tyrosine kinase activity assay with poly E4Y and 32P-ATP; details: NI = no inhibition
T2 construct: GST ('glutathione-5-transferase' [sic]); made in house; host or cells: E. coli (pGEX expression vector)
Method: (§1) Recombinant human Src was expressed using the baculovirus-insect cell system and purified as published (Budde et al., 1993 and 2000). Recombinant Csk and the FGF receptor (FGFr) were expressed as […] fusion proteins using the pGEX expression vector and E. coli, and purified as described (Sun & Budde, 1995).
(§2) The tyrosine kinase activity of Src, Csk and FGFr was determined using poly E4Y and ^32P-ATP. Briefly, enzymes were assayed in a reaction mixture […] consisting of 0.15 M EPPS-NaOH (pH 8.0) with 6 mM MgCl2, 0.2 mM γ^32P-ATP (0.2-0.4 mCi/μmol), 10% glycerol, 0.1% Triton X-100, and poly E4Y. Poly E4Y is a synthetic peptide whose phosphorylation is measured in this assay by the addition of the radioactively labeled phosphate from the ATP (Budde et al., 1995). […] When ATP was varied (0, 50, 100 and 250 μM), poly E4Y was kept constant at 150 μg/ml.

FGF receptor (FGFr) = target: T3, FGF receptor (FGFr); assay: FGFr tyrosine kinase activity assay with poly E4Y and 32P-ATP; details: NI = no inhibition
T3 construct: fused on or other part: glutathione-S-transferase (GST) from the pGEX vector
Method: as §1, §2

T1 sequence (P12931 whole entry): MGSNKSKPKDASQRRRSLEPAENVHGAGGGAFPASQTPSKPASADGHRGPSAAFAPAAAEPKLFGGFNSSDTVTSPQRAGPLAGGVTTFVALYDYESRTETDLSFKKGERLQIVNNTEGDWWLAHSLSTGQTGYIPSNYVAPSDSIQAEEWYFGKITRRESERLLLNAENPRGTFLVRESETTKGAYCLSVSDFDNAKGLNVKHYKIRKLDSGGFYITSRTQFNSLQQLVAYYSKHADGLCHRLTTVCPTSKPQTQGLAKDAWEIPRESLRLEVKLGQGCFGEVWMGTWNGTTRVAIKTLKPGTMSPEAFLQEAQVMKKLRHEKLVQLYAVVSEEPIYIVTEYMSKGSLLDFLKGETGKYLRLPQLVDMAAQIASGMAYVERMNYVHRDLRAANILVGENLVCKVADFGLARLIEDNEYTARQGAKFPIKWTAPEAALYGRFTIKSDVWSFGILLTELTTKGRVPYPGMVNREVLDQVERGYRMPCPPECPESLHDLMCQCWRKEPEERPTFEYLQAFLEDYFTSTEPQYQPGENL

IC50 (Recombinant human Src) [µM]	IC50 (Recombinant Csk) [µM]	IC50 (FGF receptor (FGFr)) [µM]	Structure (SMILES)
0.0055	102	102	COc1ccc(C=NNc2ncnc3c(C)c(-c4ccc(CN5CCOCC5)cc4)sc23)cc1O [Compound 46, 3-Hydroxy-4-methoxybenzaldehyde (6-(4-(morpholin-4-yl)methyl-phenyl)-7-methylthieno[3,2-d]pyrimidin-4-yl)hydrazone]
0.0025	3.4	2.3	CCOc1ccccc1-c1sc2c(NN=Cc3ccc(O)c(OC)c3)ncnc2c1O [Compound 88, 4-Hydroxy-3-methoxybenzaldehyde (6-(2-ethoxyphenyl)-7-hydroxythieno[3,2-d]pyrimidin-4-yl)hydrazone]
0.0025	2.9	1.9	CCOc1ccccc1-c1sc2c(NN=Cc3cc(Br)c(O)c(OC)c3)ncnc2c1O [Compound 89, 3-Bromo-4-hydroxy-5-methoxybenzaldehyde (6-(2-ethoxyphenyl)-7-hydroxythieno[3,2-d]pyrimidin-4-yl)hydrazone]
0.0042	11.3	27.7	CCOc1ccccc1-c1sc2c(NN=Cc3ccc(O)c(Cl)c3)ncnc2c1O [Compound 92, 3-Chloro-4-hydroxybenzaldehyde (6-(2-ethoxyphenyl)-7-hydroxythieno[3,2-d]pyrimidin-4-yl)hydrazone]
0.004	7.2	–	CCOc1ccccc1-c1sc2c(NN=Cc3ccncc3)ncnc2c1O [Compound 112, 4-Pyridinecarboxaldehyde (6-(2-ethoxyphenyl)-7-hydroxythieno[3,2-d]pyrimidin-4-yl)hydrazone]
0.005	7.1	–	CCOc1ccccc1-c1sc2c(NN=Cc3cccc(C(=O)O)c3)ncnc2c1O [Compound 116, 3-Carboxybenzaldehyde (6-(2-ethoxyphenyl)-7-hydroxythieno[3,2-d]pyrimidin-4-yl)hydrazone]
0.005	5.5	–	CCOc1ccccc1-c1sc2c(NN=Cc3[nH]cnc3C)ncnc2c1O [Compound 117, 4-Methyl-5-imidazolecarboxaldehyde (6-(2-ethoxyphenyl)-7-hydroxythieno[3,2-d]pyrimidin-4-yl)hydrazone]
0.006	5	–	CCOc1ccccc1-c1sc2c(NN=Cc3ccco3)ncnc2c1O [Compound 121, 2-Furancarboxaldehyde (6-(2-ethoxyphenyl)-7-hydroxythieno[3,2-d]pyrimidin-4-yl)hydrazone]
0.009	15	–	CCOc1ccccc1-c1sc2c(NN=Cc3sccc3C)ncnc2c1O [Compound 124, 3-Methyl-2-thiophenecarboxaldehyde (6-(2-ethoxyphenyl)-7-hydroxythieno[3,2-d]pyrimidin-4-yl)hydrazone]
0.016	10	–	COc1ccc(C=NNc2ncnc3c(C#N)c(-c4ccc(N)cc4)sc23)cc1O [compound 59]
0.0014	26	–	CCOc1ccccc1-c1sc2c(NN=Cc3ccc(C(=O)O)cc3)ncnc2c1C#N [compound 68]
0.0015	13	–	CCOc1ccccc1-c1sc2c(NN=Cc3cccc(O)c3)ncnc2c1C#N [compound 103]

Structure (SMILES)	IC50 (Recombinant human Src) [µM]	IC50 (Recombinant Csk) [µM]	IC50 (FGF receptor (FGFr)) [µM]
CCCOc1ccccc1-c1sc2c(NN=Cc3cccs3)ncnc2c1O [Compound 85]	0.0048	17.7	7.5
